Experimental data published in patent US9962398B2, “Sulfonamide compounds for inhibition of metastatic tumor growth” (Welichem Biotech Inc., priority 2010, dated 2018).
Read-outs that look alike come from different tables or passages of the source.

Legend:
[1] = molecular target: hCA IX (Homo sapiens (Human), UniProt Q16790)
[2] = molecular target: hCA XII (Homo sapiens (Human), UniProt O43570); settings: read-out: KI (nM) Activity hCAXII; Table 1
[3] = molecular target: hCA I (Homo sapiens (Human), UniProt P00915); settings: read-out: KI (nM) Activity hCAI; Table 1
[4] = test system: MDA-231 LM2-4 Luc+ cells; assay: 3D Matrigel invasion assay in hypoxia; assay type: cell-based, human; settings: 4 days in hypoxia
Description: A 3D “on-top” matrigel culture assay was performed as described previously (Lee et al, (2007) Nat Methods 4:359-365). […] Cells were allowed to attach for 45 minutes with side-to-side agitation every 10-15 minutes to prevent clumping of cells in the center of the well. An additional 100 μl/well media containing 10% matrigel was added to the cells and cultures were incubated in hypoxia for 4 days. Images were acquired and cultures were fixed for TUNEL using the “whole culture fixation” methodology outlined in Lee et al, (2007) Nat Methods 4:359-365).
Treatment with novel sulfonamide inhibitors of CAIX attenuates hypoxia-induced invasion of human breast cancer cells grown in 3D Matrigel™ cultures (FIG. 16). Cells were cultured in 3D “on-top” Matrigel™ assays for 4 days in hypoxia in the presence of inhibitors. DMSO-treated cell cultures served as controls. The percentage concentration of DMSO and molar concentration of inhibitors are indicated. Representative phase contrast images are shown.

[5] = test system: 4T1 mammary tumor cells; assay: Experimental metastasis assay, intravenous 4T1 cells, bioluminescence; assay type: in vivo, mouse; settings: i.v. 4T1 cells, three i.p. doses over 6 days, imaged 24 h after third dose
Description: For studies involving genetic depletion of CAIX, 4T1 or 67NR cells (5×10^5) were injected directly into the tail vein of 7-9 week-old female BALB/c mice. Mice were imaged once per week to follow the growth of metastases. Mice were euthanized 20 days post-injection and lungs were resected for further analysis. Tumor burden in the lung was quantified by manually counting nodules visible on the lung surface. For studies using sulphonamide inhibitors, 4T1 cells (1-5×10^5) were injected as described above (Pacchiano et al, (2011) J Med Chem 54:1896-1902).
Animals were treated 24 hours post inoculation of cells. Three doses were administered by i.p. injection over 6 days and the mice were imaged 24 hours following the third dose of inhibitor. […] Quantification of tumor-derived bioluminescence is shown in 12C. Regions of interest were positioned around metastatic foci and total flux (photons/sec) at the mouse surface was calculated. Data are reported as the mean±s.e.m. N=4 per group. *P<0.05.
4T1 cells were injected directly into the tail vein of BALB/c mice. […] Vehicle and inhibitor were administered by i.p. injection. Shown are representative images of tumor-cell derived bioluminescence in control and inhibitor-treated animals.

[6] = test system: 4T1 cells; assay: Measurement of extracellular pH in hypoxia, 4T1 cells; assay type: cell-based, mouse; settings: 72 h, 400 uM MST-017
Description: (§1) Changes in solution pH were assessed using procedures published previously (29, 42, 43). In brief, cells were plated at appropriate density (1×10^4 cells/cm2 for 4T1 cells and its transfected derivatives, 2×10^4 cells/cm2 for 66cl4 cells, 1×10^4 cells/cm2 for 67NR cells and its transfected derivatives) in 60 mm dishes and allowed to recover overnight. A standard volume of 3 ml of fresh media/dish was then added and cells were incubated in normoxia (air+5% CO2) or hypoxia (1% O2 and 5% CO2 balanced with nitrogen) for 72 h. Care was taken to ensure that cultures grown in normoxia and hypoxia were at similar confluence and contained similar cell numbers at the time of medium collection. Collected spent media was maintained at 37° C. and pH was measured immediately using a digital pH meter. […] Cells were harvested on ice for qRT-PCR and Western blot analysis.
(§2) Ureido sulfonamides are new.
(§3) Cells were cultured for 72 h in the presence of 10 μM MST-017. Shown in FIG. 9 are representative images of the FITC-tagged inhibitor bound to the cell lines in the indicated conditions. […] For each cell line, changes in the extracellular pH in hypoxia were assessed relative to the baseline extracellular pH measured in parallel cultures grown in normoxia. *P<0.001 with a two-sided Student's t-test, compared to cells cultured without inhibitor.

[7] = test system: 66cl4 cells; assay: Measurement of extracellular pH in hypoxia, 66cl4 cells; assay type: cell-based, mouse; settings: 72 h, 600 uM MST-017
Description: as §1, §2
as §3, with “Shown” for “Cells were cultured for 72 h in the presence of 10 μM MST-017. Shown”

[8] = test system: 4T1 primary tumors; settings: mouse, in vivo
Description: For in vitro studies, the compounds were dissolved in DMSO, stored at −80° C. and diluted into culture medium just prior to application. […] For in vivo studies, the MST-017 inhibitor was administered by i.p. injection (first two doses were administered i.v.) at 75 mg/kg and 150 mg/kg 3× per week for 2 weeks. […] The compounds were solubilized in PEG400/ethanol/saline prior to injection. Vehicle components were held constant as inhibitor concentrations were varied.
(§4) Primary tumor growth rates were calculated from caliper measurements using the modified ellipsoid formula (L×W^2)/2.
Animals were inoculated orthotopically with 4T1 cells. Tumors were allowed to establish for 14 days. Mice were injected with the indicated doses of MST-017 3× per week for 2 weeks. Left panel, tumor growth was monitored by caliper-based measurement. […] Vehicle-treated and untreated animals served as controls. *P<0.02, **P<0.01 using a 2-sided Student's t-test, compared to vehicle controls.
The weights of treated animals were monitored as a measure of general inhibitor toxicity. Mice were weighed just prior to each dose of the CAIX inhibitor.

[9] = test system: 67NR-derived tumors; settings: mouse, in vivo
Description: For in vivo studies, the MST-017 inhibitor was administered by i.p. injection (first two doses were administered i.v.) at 75 mg/kg and 150 mg/kg 3× per week for 2 weeks. […] The compounds were solubilized in PEG400/ethanol/saline prior to injection. Vehicle components were held constant as inhibitor concentrations were varied.
as §4

[10] = read-out: Ki (nM) hCA IX, Table 3
[11] = read-out: KI (nM) Activity hCAIX, Table 1
[12] = read-out: Ki (nM) hCA IX, Table 2

hCA XII, sequence (O43570 25-354): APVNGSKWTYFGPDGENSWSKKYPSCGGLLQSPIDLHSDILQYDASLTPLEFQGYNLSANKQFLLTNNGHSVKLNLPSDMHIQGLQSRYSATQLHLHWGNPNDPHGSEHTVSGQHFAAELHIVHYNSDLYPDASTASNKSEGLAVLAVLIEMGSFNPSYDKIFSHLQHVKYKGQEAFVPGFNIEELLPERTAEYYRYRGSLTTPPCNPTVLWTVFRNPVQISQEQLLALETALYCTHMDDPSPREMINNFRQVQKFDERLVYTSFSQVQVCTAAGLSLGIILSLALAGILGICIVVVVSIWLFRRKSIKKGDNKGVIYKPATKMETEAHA
hCA I, sequence (P00915 whole entry): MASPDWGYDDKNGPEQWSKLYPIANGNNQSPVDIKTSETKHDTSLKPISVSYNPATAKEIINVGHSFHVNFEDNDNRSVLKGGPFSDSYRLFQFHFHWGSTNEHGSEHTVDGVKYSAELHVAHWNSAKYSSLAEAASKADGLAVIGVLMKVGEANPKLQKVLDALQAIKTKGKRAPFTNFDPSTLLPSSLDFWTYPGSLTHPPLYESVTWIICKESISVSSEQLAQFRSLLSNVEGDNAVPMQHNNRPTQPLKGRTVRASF

Row | Compound | Ki [1, 11] [nM] | Ki [2] [nM] | also measured
1 | NS(=O)(=O)c1ccc(NC(=O)Nc2cc([N+](=O)[O-])ccc2Cl)cc1 [MST-145, 4-(3-(2′-Chloro-5-nitrophenyl)ureido)benzenesulfonamide] |  |  | Ki [1, 10]: 8.2 nM
2 | NS(=O)(=O)c1ccc(NC(=O)Nc2ccc(I)cc2)cc1 [MST-106, 4-{[(4′-Iodophenyl)carbamoyl]amino}benzenesulfonamide] | 24.5 | 4.3 | 
3 | NS(=O)(=O)c1ccc(NC(=O)Nc2ccc(Cl)cc2)cc1 [MST-124, 4-{([(4′-chlorophenyl)amino]carbonylamino)}benzenesulfonamide] |  | 5.3 | 
4 | COc1ccc(NC(=O)Nc2ccc(S(N)(=O)=O)cc2)c(C)c1 [MST-120, 4-{([(4′-Methoxy-2′-methylphenyl)amino]carbonyl)amino}benzenesulfonamide] |  | 6 | 
5 | NS(=O)(=O)c1ccc(NC(=O)Nc2ccc(Oc3ccccc3)cc2)cc1 [MST-117, 4-({[(4′-Phenoxyphenyl)amino]carbonyl}amino)benzenesulfonamide] | 69.1 | 7.1 | Ki [3]: 604 nM
6 | CC(=O)c1ccc(NC(=O)Nc2ccc(S(N)(=O)=O)cc2)cc1 [MST-109, 4-{([(4′-Acetylphenyl)amino]carbonyl)amino}benzenesulfonamide] |  | 4.6 | 
7 | N#Cc1ccc(NC(=O)Nc2ccc(S(N)(=O)=O)cc2)cc1 [MST-115, 4-{[(4′-Cyanophenyl)carbamoyl]amino}benzenesulfonamide] | 6 | 6.5 | Ki [3]: 57 nM
8 | NS(=O)(=O)c1ccc(NC(=O)Nc2ccc(Cl)cc2F)cc1 [MST-134, 4-(3-(4′-chloro-2-fluorophenyl)ureido)benzenesulfonamide] |  |  | Ki [1, 10]: 5.1 nM
9 | CC(=O)c1ccc(NC(=O)Nc2cccc(S(N)(=O)=O)c2)cc1 [MST-131, 3-(3-(4′-Acetylphenyl)ureido)benzenesulfonamide] |  |  | Ki [1, 12]: 15.1 nM
10 | NS(=O)(=O)c1ccc(NC(=O)Nc2c(F)c(F)c(F)c(F)c2F)cc1 [MST-107, 4-{[(Pentafluorophenyl)carbamoyl]amino}benzenesulfonamide] | 5.4 | 5.1 | hypoxia-induced invasion [4]: inhibit invasion
11 | NS(=O)(=O)c1ccc(NC(=O)Nc2cccc([N+](=O)[O-])c2)cc1 [MST-119, 4-{[(3′-Nitrophenyl)carbamoyl]amino}benzenesulfonamide] | 0.9 |  | formation of metastases (tumor-derived bioluminescence) [5]: reduces the formation of metastases; hypoxia-induced invasion [4]: inhibit invasion
12 | NS(=O)(=O)c1ccc(NC(=O)Nc2cc(F)c(F)cc2F)cc1 [MST-137, 4-(3-(2′,4′,5′-trifluorophenyl)ureido)benzenesulfonamide] |  |  | Ki [1, 10]: 7.6 nM
13 | COc1ccccc1NC(=O)Nc1ccc(S(N)(=O)=O)cc1 [MST-108] | 465 | 61.2 | Ki [3]: 92 nM
14 | NS(=O)(=O)c1cccc(NC(=O)Nc2cccc([N+](=O)[O-])c2)c1 [MST-130, 3-(3-(3′-Nitrophenyl)ureido)benzenesulfonamide] |  |  | hypoxia-induced invasion [4]: inhibit invasion; Ki [1, 12]: 7.9 nM
15 | CC(C)c1ccc(NC(=O)Nc2ccc(S(N)(=O)=O)cc2)cc1 [MST-111, 4-{([(4′-Isopropylphenyl)amino]carbonyl)amino}benzenesulfonamide] | 541 | 49.7 | 
16 | CC(C)c1ccccc1NC(=O)Nc1cccc(S(N)(=O)=O)c1 [MST-132, 3-(3-(2′-Isopropylphenyl)ureido)benzenesulfonamide] |  |  | Ki [1, 12]: 18.5 nM
17 | NS(=O)(=O)c1ccc(NC(=O)Nc2ccc(F)cc2F)cc1 [MST-142, 4-(3-(2′,4′-difluorophenyl)ureido)benzenesulfonamide] |  |  | Ki [1, 10]: 3.7 nM
18 | CCCCOc1ccc(NC(=O)Nc2ccc(S(N)(=O)=O)cc2)cc1 [MST-113, 4-{[(4′-Butoxyphenyl)carbamoyl]amino}benzenesulfonamide] | 0.8 | 2.5 | 
19 | NS(=O)(=O)c1ccc(NC(=O)Nc2ccc(F)c(F)c2F)cc1 [MST-140, 4-(3-(2′,3′,4′-trifluorophenyl)ureido)benzenesulfonamide] |  |  | Ki [1, 10]: 9.6 nM
20 | NS(=O)(=O)c1ccc(NC(=O)Nc2ccc(Br)cc2)cc1 [MST-105, 4-({[(4′-Bromophenyl)amino]carbonyl}amino)benzenesulfonamide] | 69.3 | 7.9 | 
21 | CCCCc1ccc(NC(=O)Nc2ccc(S(N)(=O)=O)cc2)cc1 [MST-112, 4-({[(4′-Butylphenyl)amino]carbonyl}amino)benzenesulfonamide] | 376 | 28.5 | 
22 | NS(=O)(=O)c1cccc(NC(=O)Nc2ccc(F)cc2)c1 [MST-129, 3-(3-(4′-Fluorophenyl)ureido)benzenesulfonamide] |  |  | Ki [1, 12]: 10.2 nM
23 | N#Cc1ccccc1NC(=O)Nc1ccc(S(N)(=O)=O)cc1 [MST-116, 4-{([(2′-Cyanophenyl)amino]carbonyl)amino}benzenesulfonamide] | 0.3 | 4.6 | Ki [3]: 10.9 nM
24 | NS(=O)(=O)c1ccc(CCNC(=S)Nc2ccc(-c3c4ccc(=O)cc-4oc4cc(O)ccc34)c(C(=O)O)c2)cc1 [MST-017] |  |  | change in extracellular pH [6]: reversed acidification of the extracellular medium; change in extracellular pH [7]: reversed acidification of the extracellular medium; tumor growth [8]: significant inhibition of tumor growth; weights of treated animals [8]: no significant weight reduction; tumor growth [9]: no significant effect; weights of treated animals [9]: no significant weight reduction
25 | CC(C)c1ccccc1NC(=O)Nc1ccc(S(N)(=O)=O)cc1 [MST-110, 4-{([(2′-Isopropylphenyl)amino]carbonyl)amino}benzenesulfonamide] | 0.5 | 4.2 | 
26 | NS(=O)(=O)c1cccc(NC(=O)Nc2ccc(I)cc2)c1 [MST-128, 3-(3-(4′-Iodophenyl)ureido)benzenesulfonamide] |  |  | Ki [1, 12]: 13.1 nM
27 | NS(=O)(=O)c1ccc(NC(=O)Nc2ccccc2F)cc1 [MST-141, 4-(3-(2′-fluorophenyl)ureido)benzenesulfonamide] |  |  | Ki [1, 10]: 7.7 nM
28 | NS(=O)(=O)c1ccc(NC(=O)NC2CCCC2)cc1 [MST-122, 4-[(Cyclopentylcarbamoyl)amino]benzenesulfonamide] | 7.3 | 7 | 
29 | NS(=O)(=O)c1ccc(NC(=O)Nc2cc(Cl)ccc2Cl)cc1 [MST-144, 4-(3-(2′,5′-dichlorophenyl)ureido)benzenesulfonamide] |  |  | Ki [1, 10]: 8.9 nM
30 | NS(=O)(=O)c1ccc(NC(=O)Nc2cc(C(F)(F)F)ccc2F)cc1 [MST-138, 4-(3-(2′-fluoro-5′-(trifluoromethyl)phenyl)ureido)benzenesulfonamide] |  |  | Ki [1, 10]: 7.4 nM
